# Assay results as given in patent publication EP4745137A1 (Gluetacs Therapeutics (Shanghai) Co., Ltd., priority 2023, dated 2025).
# Tests used:
# WEE1 = biological target: T1, WEE1 (Homo sapiens, UniProt P30291+Q96SW2); assay: Western-blot assay of substrate protein degradation in hPBMCs, WEE1; assay type: cell-based; details: 24 hours of compound treatment, 50 nM and 500 nM tested (concentration behind the class not stated)
# T1 construct: endogenous in cells; host or cells: hPBMCs (Milecell Biotechnologies)
# IKZF1 = biological target: T2, IKZF1 (Homo sapiens, UniProt Q13422+Q96SW2); assay: Western-blot assay of substrate protein degradation in hPBMCs, IKZF1; assay type: cell-based; details: 24 hours of compound treatment, 50 nM and 500 nM tested (concentration behind the class not stated)
# T2 construct: endogenous in cells; host or cells: hPBMCs (Milecell Biotechnologies)
# IKZF2 = biological target: T3, IKZF2 (Homo sapiens, UniProt Q96SW2+Q9UKS7); assay: Western-blot assay of substrate protein degradation in hPBMCs, IKZF2; assay type: cell-based; details: 24 hours of compound treatment, 50 nM and 500 nM tested (concentration behind the class not stated)
# T3 construct: endogenous in cells; host or cells: hPBMCs (Milecell Biotechnologies)
# IKZF3 = biological target: T4, IKZF3 (Homo sapiens, UniProt Q96SW2+Q9UKT9); assay: Western-blot assay of substrate protein degradation in hPBMCs, IKZF3; assay type: cell-based; details: 24 hours of compound treatment, 50 nM and 500 nM tested (concentration behind the class not stated)
# T4 construct: endogenous in cells; host or cells: hPBMCs (Milecell Biotechnologies)
# CK1α = biological target: T5, CK1α (Homo sapiens, UniProt P48729+Q96SW2); assay: Western-blot assay of substrate protein degradation in hPBMCs, CK1α; assay type: cell-based; details: 24 hours of compound treatment, 50 nM and 500 nM tested (concentration behind the class not stated)
# T5 construct: endogenous in cells; host or cells: hPBMCs (Milecell Biotechnologies)
# GSPT1 = biological target: T6, GSPT1 (Homo sapiens, UniProt P15170+Q96SW2); assay: Western-blot assay of substrate protein degradation in hPBMCs, GSPT1; assay type: cell-based; details: 24 hours of compound treatment, 50 nM and 500 nM tested (concentration behind the class not stated)
# T6 construct: endogenous in cells; host or cells: hPBMCs (Milecell Biotechnologies)
# [1] = biological target: T7, human Cereblon WT GST-tagged protein (Homo sapiens, UniProt Q96SW2); assay: CRBN-binding affinity by HTRF (CEREBLON BINDING kit); details: HTRF inhibitory activity, CEREBLON BINDING kit; read-out: HTRF IC50
# T7 construct: purchased CISBIO 64BDCRBNPEH
# MM.1S = assay: Tumor cell proliferation inhibition (CellTiter-Meiluncell Luminescent Cell Viability Assay), MM.1S; details: Homo sapiens, MM1.S, read-out: inhibitory activity (IC50, nM) against tumor cells proliferation, MM.1S
# Method: The tumor cells used herein were cultured in a cell culture medium listed in table 2 at 37°C in an incubator with 5% CO2. Prior to experimentation, all cell lines used were correctly identified by STR profiling, and tested negative for mycoplasma contamination using a mycoplasma detection kit through routine screenings.
# On the following day, the test compounds of the present disclosure were subjected to serial dilution. […] Subsequently, 0.5 µL of the test compound dilution was transferred into the 96-well plate containing the cells, with each well containing 100 µL of cell culture medium. […] Into the 96-well plate, the diluted test compounds and corresponding detection reagents were added, resulting in final test compound concentrations of 500 nM and 10 nM, respectively.
# After the cells were treated with the compounds of the present disclosure for a specified period (the treatment durations were shown in Table 3), the cell viability assay reagent was added to the culture medium according to the kit's instructions to determine cell viability. […] All controls were treated using the same procedure as the compounds of the present disclosure. The growth inhibition curves for the compounds of the present disclosure were plotted using Prism GraphPad software, and the IC50 values were calculated therefrom.
# Jurkat = assay: Tumor cell proliferation inhibition (CellTiter-Meiluncell Luminescent Cell Viability Assay), Jurkat; details: Homo sapiens, read-out: inhibitory activity (IC50, nM) against tumor cells proliferation, Jurkat
# [2] = tested on: Human acute T lymphocytic leukemia cells (Molt-4); assay: Tumor cell proliferation inhibition (CellTiter-Meiluncell Luminescent Cell Viability Assay), Molt-4; details: MOLT-4, read-out: inhibitory activity (IC50, nM) against tumor cells proliferation, Molt-4
# MV-4-11 = assay: Tumor cell proliferation inhibition (CellTiter-Meiluncell Luminescent Cell Viability Assay), MV-4-11; details: Homo sapiens, MV4-11, read-out: inhibitory activity (IC50, nM) against tumor cells proliferation, MV-4-11
# CCRF-CEM = assay: Tumor cell proliferation inhibition (CellTiter-Meiluncell Luminescent Cell Viability Assay), CCRF-CEM; details: Homo sapiens, read-out: inhibitory activity (IC50, nM) against tumor cells proliferation, CCRF-CEM
# NCI-H1975 = assay: Tumor cell proliferation inhibition (CellTiter-Meiluncell Luminescent Cell Viability Assay), NCI-H1975; details: Homo sapiens, NCI-H1975, read-out: inhibitory activity (IC50, nM) against tumor cells proliferation, H1975
# T1 sequence (P30291 whole entry): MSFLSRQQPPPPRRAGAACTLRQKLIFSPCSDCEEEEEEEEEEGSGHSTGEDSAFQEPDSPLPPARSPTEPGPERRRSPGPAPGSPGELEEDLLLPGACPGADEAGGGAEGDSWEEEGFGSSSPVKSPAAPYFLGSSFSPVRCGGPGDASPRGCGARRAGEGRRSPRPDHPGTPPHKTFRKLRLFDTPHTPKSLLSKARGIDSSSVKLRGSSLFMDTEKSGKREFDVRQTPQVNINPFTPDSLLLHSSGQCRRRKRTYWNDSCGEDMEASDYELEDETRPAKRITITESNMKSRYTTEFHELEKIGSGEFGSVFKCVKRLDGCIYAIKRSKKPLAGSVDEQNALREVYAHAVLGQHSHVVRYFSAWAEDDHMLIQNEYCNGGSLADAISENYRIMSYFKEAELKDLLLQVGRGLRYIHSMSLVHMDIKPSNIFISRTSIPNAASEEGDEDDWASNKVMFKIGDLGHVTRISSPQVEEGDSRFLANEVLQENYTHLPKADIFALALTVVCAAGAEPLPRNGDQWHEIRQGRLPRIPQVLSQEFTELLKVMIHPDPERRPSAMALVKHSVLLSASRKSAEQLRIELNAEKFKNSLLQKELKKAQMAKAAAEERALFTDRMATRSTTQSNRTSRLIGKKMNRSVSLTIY
# T1 sequence (Q96SW2 whole entry): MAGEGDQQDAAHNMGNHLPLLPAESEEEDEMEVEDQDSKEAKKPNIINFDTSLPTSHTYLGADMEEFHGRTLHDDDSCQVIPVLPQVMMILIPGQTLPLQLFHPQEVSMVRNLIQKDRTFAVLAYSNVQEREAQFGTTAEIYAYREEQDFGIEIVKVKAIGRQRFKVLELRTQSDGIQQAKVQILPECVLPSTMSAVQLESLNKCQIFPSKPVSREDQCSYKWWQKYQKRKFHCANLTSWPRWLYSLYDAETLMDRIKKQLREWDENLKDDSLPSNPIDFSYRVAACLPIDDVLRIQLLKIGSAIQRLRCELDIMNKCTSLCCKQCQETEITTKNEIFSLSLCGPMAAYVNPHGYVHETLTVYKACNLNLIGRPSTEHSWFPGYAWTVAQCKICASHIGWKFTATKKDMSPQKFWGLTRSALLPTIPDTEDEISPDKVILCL
# T1 sequence (Q16531 whole entry partner): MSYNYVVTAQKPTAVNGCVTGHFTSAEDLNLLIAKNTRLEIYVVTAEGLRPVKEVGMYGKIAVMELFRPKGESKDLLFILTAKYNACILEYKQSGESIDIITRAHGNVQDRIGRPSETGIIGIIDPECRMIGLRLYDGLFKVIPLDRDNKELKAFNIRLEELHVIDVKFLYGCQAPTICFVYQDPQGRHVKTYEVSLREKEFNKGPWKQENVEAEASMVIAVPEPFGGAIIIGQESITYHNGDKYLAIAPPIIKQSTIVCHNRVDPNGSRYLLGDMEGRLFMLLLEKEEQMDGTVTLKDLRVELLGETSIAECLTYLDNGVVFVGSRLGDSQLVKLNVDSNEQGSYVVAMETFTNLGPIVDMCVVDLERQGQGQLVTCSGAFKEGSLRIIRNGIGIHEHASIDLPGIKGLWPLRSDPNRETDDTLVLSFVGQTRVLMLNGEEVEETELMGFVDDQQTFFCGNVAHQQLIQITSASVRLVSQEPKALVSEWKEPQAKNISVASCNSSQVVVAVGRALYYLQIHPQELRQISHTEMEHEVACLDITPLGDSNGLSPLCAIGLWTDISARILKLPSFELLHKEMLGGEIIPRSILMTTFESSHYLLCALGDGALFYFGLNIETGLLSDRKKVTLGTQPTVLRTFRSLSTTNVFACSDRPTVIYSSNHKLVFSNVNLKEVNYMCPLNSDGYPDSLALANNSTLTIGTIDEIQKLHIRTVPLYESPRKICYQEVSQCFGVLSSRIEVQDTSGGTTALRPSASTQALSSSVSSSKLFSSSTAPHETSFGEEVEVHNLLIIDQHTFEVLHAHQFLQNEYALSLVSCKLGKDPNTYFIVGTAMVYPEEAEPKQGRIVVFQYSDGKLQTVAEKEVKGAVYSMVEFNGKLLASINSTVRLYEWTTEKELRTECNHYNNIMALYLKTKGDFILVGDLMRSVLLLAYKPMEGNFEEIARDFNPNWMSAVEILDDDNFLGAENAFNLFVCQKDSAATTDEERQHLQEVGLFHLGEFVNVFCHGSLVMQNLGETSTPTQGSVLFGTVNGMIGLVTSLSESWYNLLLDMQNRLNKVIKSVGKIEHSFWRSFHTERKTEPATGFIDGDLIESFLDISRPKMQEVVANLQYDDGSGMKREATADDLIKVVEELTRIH
# T3 sequence (Q9UKS7 whole entry): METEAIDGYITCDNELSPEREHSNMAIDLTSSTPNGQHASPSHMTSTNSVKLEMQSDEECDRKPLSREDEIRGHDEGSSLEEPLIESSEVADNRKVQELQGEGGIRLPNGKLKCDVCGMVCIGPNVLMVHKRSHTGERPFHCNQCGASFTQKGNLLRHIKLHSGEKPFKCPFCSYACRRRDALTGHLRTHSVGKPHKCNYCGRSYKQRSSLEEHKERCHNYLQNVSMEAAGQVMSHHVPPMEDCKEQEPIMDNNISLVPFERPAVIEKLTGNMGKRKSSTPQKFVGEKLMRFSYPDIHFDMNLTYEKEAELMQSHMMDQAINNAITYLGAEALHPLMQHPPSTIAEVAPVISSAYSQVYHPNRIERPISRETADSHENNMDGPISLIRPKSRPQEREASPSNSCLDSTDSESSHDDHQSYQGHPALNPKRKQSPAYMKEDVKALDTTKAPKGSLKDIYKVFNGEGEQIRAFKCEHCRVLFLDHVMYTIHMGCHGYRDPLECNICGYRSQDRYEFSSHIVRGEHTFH
# T3 sequence (Q96SW2 whole entry): as the sequence (Q96SW2 whole entry) above
# T3 sequence (Q16531 whole entry partner): as the sequence (Q16531 whole entry partner) above
# T6 sequence (P15170 whole entry): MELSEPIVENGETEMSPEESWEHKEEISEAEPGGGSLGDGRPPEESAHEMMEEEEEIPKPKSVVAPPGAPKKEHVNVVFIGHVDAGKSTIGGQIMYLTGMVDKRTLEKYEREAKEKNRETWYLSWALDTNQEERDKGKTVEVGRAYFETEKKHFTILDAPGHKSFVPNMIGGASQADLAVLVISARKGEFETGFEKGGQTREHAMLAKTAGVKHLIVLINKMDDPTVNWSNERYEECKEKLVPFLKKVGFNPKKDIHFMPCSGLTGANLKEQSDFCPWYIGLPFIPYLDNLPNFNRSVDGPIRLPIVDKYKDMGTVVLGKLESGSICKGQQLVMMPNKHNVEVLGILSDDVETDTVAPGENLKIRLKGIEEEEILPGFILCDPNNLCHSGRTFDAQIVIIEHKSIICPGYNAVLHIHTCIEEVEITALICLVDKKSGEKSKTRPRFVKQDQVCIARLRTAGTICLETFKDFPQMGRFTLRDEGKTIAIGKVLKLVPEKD
# T6 sequence (Q96SW2 whole entry): as the sequence (Q96SW2 whole entry) above
# T6 sequence (Q16531 whole entry partner): as the sequence (Q16531 whole entry partner) above
# T5 sequence (P48729 whole entry): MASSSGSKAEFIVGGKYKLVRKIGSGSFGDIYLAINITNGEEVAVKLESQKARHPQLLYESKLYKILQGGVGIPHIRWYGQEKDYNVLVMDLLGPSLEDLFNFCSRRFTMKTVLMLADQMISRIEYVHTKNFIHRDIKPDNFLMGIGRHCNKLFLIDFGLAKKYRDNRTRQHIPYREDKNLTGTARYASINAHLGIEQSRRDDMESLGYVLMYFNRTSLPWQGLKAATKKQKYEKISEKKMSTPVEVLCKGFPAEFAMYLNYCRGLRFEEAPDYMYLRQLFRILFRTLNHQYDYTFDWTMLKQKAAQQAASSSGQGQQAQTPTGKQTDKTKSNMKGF
# T5 sequence (Q96SW2 whole entry): as the sequence (Q96SW2 whole entry) above
# T5 sequence (Q16531 whole entry partner): as the sequence (Q16531 whole entry partner) above
# T2 sequence (Q13422 whole entry): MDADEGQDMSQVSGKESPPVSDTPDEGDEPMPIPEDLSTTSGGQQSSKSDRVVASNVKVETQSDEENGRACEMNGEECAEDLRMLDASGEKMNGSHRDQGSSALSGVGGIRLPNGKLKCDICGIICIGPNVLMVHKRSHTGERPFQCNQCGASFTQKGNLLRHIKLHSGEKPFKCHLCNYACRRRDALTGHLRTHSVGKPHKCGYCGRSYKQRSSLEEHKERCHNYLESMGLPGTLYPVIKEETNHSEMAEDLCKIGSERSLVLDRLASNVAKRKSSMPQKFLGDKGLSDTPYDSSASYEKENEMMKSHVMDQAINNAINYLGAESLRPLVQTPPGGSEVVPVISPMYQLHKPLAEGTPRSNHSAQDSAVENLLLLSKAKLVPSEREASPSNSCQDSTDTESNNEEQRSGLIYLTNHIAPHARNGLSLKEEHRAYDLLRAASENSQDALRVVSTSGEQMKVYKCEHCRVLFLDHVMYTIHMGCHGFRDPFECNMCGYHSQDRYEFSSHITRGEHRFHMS
# T2 sequence (Q96SW2 whole entry): as the sequence (Q96SW2 whole entry) above
# T2 sequence (Q16531 whole entry partner): as the sequence (Q16531 whole entry partner) above
# T7 sequence (Q96SW2 whole entry): as the sequence (Q96SW2 whole entry) above
SMILES,Weel substrate protein remaining % (WEE1),IKZF 1 substrate protein remaining % (IKZF1),IKZF2 substrate protein remaining % (IKZF2),IKZF3 substrate protein remaining % (IKZF3),CK1a substrate protein remaining % (CK1α),GSPT1 substrate protein remaining % (GSPT1),IC50 [1],IC50 (MM.1S),IC50 (Jurkat),IC50 [2],IC50 (MV-4-11),IC50 (CCRF-CEM),IC50 (NCI-H1975)
"O=C1CCC(N2C(=O)c3ccc(CN4CC=C(c5nccc(Cl)c5Cl)CC4)cc3C2=O)C(=O)N1 (centres unmarked) [GT-06608, 5-((3,4-dichloro-3',6'-dihydro-[2,4'-bipyridin]-1'(2'H)-yl)methyl)-2-(2,6-dioxopiperidin-3-yl)isoindoline-1,3-dione]",B (80%< substrate protein remaining %≤ 100%),B (80%< substrate protein remaining %≤ 100%),B (80%< substrate protein remaining %≤ 100%),B (80%< substrate protein remaining %≤ 100%),B (80%< substrate protein remaining %≤ 100%),A (0% ≤ substrate protein remaining % ≤ 80%),1000 to 1500 nM,100 to 500 nM,100 to 500 nM,100 to 500 nM,10 to 50 nM,100 to 500 nM,
"O=C1CCC(N2C(=O)c3ccc(CN4CCN(c5n[nH]c6cc(F)ccc56)CC4)cc3C2=O)C(=O)N1 (centres unmarked) [GT-06632, 2-(2,6-dioxopiperidin-3-yl)-5-((4-(6-fluoro-1H-indazol-3-yl)piperazin-1-yl)methyl)isoindoline-1,3-dione]",A (0% ≤ substrate protein remaining % ≤ 80%),A (0% ≤ substrate protein remaining % ≤ 80%),A (0% ≤ substrate protein remaining % ≤ 80%),A (0% ≤ substrate protein remaining % ≤ 80%),A (0% ≤ substrate protein remaining % ≤ 80%),A (0% ≤ substrate protein remaining % ≤ 80%),1500 to 1900 nM,500 to 1000 nM,100 to 500 nM,100 to 500 nM,10 to 50 nM,50 to 100 nM,
"O=C1CCC(N2C(=O)c3ccc(CN4CCC(c5c[nH]c6cc(F)ccc56)CC4)cc3C2=O)C(=O)N1 (centres unmarked) [GT-06633, 2-(2,6-dioxopiperidin-3-yl)-5-((4-(6-fluoro-1H-indol-3-yl)piperidin-1-yl)methyl)isoindoline-1,3-dione]",A (0% ≤ substrate protein remaining % ≤ 80%),A (0% ≤ substrate protein remaining % ≤ 80%),A (0% ≤ substrate protein remaining % ≤ 80%),A (0% ≤ substrate protein remaining % ≤ 80%),A (0% ≤ substrate protein remaining % ≤ 80%),A (0% ≤ substrate protein remaining % ≤ 80%),,100 to 500 nM,100 to 500 nM,100 to 500 nM,50 to 100 nM,100 to 500 nM,
"Cn1cc(C2CCN(Cc3ccc4c(c3)C(=O)N(C3CCC(=O)NC3=O)C4=O)CC2)c2ccc(F)cc21 (centres unmarked) [GT-06635, 2-(2,6-dioxopiperidin-3-yl)-5-((4-(6-fluoro-1-methyl-1H-indol-3-yl)piperidin-1-yl)methyl)isoindoline-1,3-dione]",A (0% ≤ substrate protein remaining % ≤ 80%),A (0% ≤ substrate protein remaining % ≤ 80%),A (0% ≤ substrate protein remaining % ≤ 80%),A (0% ≤ substrate protein remaining % ≤ 80%),A (0% ≤ substrate protein remaining % ≤ 80%),A (0% ≤ substrate protein remaining % ≤ 80%),,100 to 500 nM,100 to 500 nM,50 to 100 nM,10 to 50 nM,50 to 100 nM,
"Cn1cc(C2=CCN(Cc3ccc4c(c3)C(=O)N(C3CCC(=O)NC3=O)C4=O)CC2)c2ccc(F)cc21 (centres unmarked) [GT-06636, 2-(2,6-dioxopiperidin-3-yl)-5-((4-(6-fluoro-1-methyl-1H-indol-3-yl)-3,6-dihydropyridin-1(2H)-yl)methyl)isoindoline-1,3-dione]",A (0% ≤ substrate protein remaining % ≤ 80%),A (0% ≤ substrate protein remaining % ≤ 80%),A (0% ≤ substrate protein remaining % ≤ 80%),A (0% ≤ substrate protein remaining % ≤ 80%),A (0% ≤ substrate protein remaining % ≤ 80%),A (0% ≤ substrate protein remaining % ≤ 80%),1000 to 1500 nM,100 to 500 nM,50 to 100 nM,10 to 50 nM,10 to 50 nM,10 to 50 nM,500 to 1000 nM
"CC(C)c1cc2c(C3=CCN(Cc4ccc5c(c4)C(=O)N(C4CCC(=O)NC4=O)C5=O)CC3)ncnc2s1 (centres unmarked) [GT-06656, 2-(2,6-dioxopiperidin-3-yl)-5-((4-(6-isopropylthieno[2,3-d]pyrimidin-4-yl)-3,6-dihydropyridin-1(2H)-yl)methyl)isoindoline-1,3-dione]",A (0% ≤ substrate protein remaining % ≤ 80%),A (0% ≤ substrate protein remaining % ≤ 80%),A (0% ≤ substrate protein remaining % ≤ 80%),A (0% ≤ substrate protein remaining % ≤ 80%),B (80%< substrate protein remaining %≤ 100%),A (0% ≤ substrate protein remaining % ≤ 80%),1000 to 1500 nM,100 to 500 nM,50 to 100 nM,10 to 50 nM,10 to 50 nM,10 to 50 nM,
"O=C1CCC(N2C(=O)c3ccc(CN4CC=C(c5ncnc6sc7c(c56)CCCC7)CC4)cc3C2=O)C(=O)N1 (centres unmarked) [GT-06680, 2-(2,6-dioxopiperidin-3-yl)-5-((4-(5,6,7,8-tetrahydrobenzo[4,5]thieno[2,3-d]pyrimidin-4-yl)-3,6-dihydropyridin-1(2H)-yl)methyl)isoindoline-1,3-dione]",A (0% ≤ substrate protein remaining % ≤ 80%),A (0% ≤ substrate protein remaining % ≤ 80%),A (0% ≤ substrate protein remaining % ≤ 80%),A (0% ≤ substrate protein remaining % ≤ 80%),B (80%< substrate protein remaining %≤ 100%),A (0% ≤ substrate protein remaining % ≤ 80%),1500 to 1900 nM,100 to 500 nM,,100 to 500 nM,10 to 50 nM,100 to 500 nM,
"Cc1ccc(Sc2ccccc2N2CCN(Cc3ccc4c(c3)C(=O)N(C3CCC(=O)NC3=O)C4=O)CC2)c(C)c1 (centres unmarked) [GT-06761, 5-((4-(2-((2,4-dimethylphenyl)thio)phenyl)piperazin-1-yl)methyl)-2-(2,6-dioxopiperidin-3-yl)isoindoline-1,3-dione]",A (0% ≤ substrate protein remaining % ≤ 80%),A (0% ≤ substrate protein remaining % ≤ 80%),A (0% ≤ substrate protein remaining % ≤ 80%),A (0% ≤ substrate protein remaining % ≤ 80%),A (0% ≤ substrate protein remaining % ≤ 80%),A (0% ≤ substrate protein remaining % ≤ 80%),,100 to 500 nM,,100 to 500 nM,10 to 50 nM,100 to 500 nM,
